As usually defined, the IC50 is the concentration at which inhibition is half-maximal.

The values that follow come from patent US8377922B2, “Benzazepinone compound” (Ube Industries, Ltd., priority 2007, dated 2013).

The subject of assay [1] is αvβ6 expressed cells (HT-29 cells). Put plainly: Cell adhesion test of αvβ6 expressed cell. The format is cell-based. The note with it: binding to human fibronectin, read-out: αvβ6 expressed cells adhesion inhibiting IC50 value. On the procedure:
The experiment was carried out by partially modifying the method of Goodman et al. (J. Med. Chem., 45, 1045 (2002)).
Human fibronectin (available from CHEMICON) was adjusted to […] with PBS. This was applied on the 96-well plate (MS9586F, available from SUMIRON) with 100 μL/well, coating was carried out at room temperature for 1 hour, and the coating solution was removed and dried. Thereafter, a blocking treatment was carried out with 1.0% BSA dissolved in DMEM for 1 hour, and washed with PBS, and this was used as a coating plate in the adhesion test. HT-29 cells (available from Dainippon Sumitomo Pharma Co., Ltd.) cultured in McCoy's 5A medium containing 10% FBS were detached by using trypsin-ethylenediamine tetraacetic acid, washed with PBS and recovered. Then, the cells were suspended in DMEM to prepare a HT-29 cells suspension. DMEM solution containing the HT-29 cells and a compound to be tested were each added to human fibronectin coating plates each in an amount of 50 μL/well to start the adhesion test.
The adhesion test was carried out in a 5% carbonic acid gas incubator (37° C.) for 2 hours. After completion of the adhesion test, the supernatant was removed by aspiration, and the plates were washed with PBS. Then, Crystal violet staining was carried out, and the number of cells was measured. A concentration (IC50 value) of the compound to be tested necessary for inhibiting 50% of binding to human fibronectin was calculated by using EXSAS (available from Arm Systex Co., Ltd.).

For assay [2], the system named is αvβ3 expressed cells (HUVEC). Put plainly: Cell adhesion test of αvβ3 expressed cell. The format is cell-based. The note with it: binding to human vitronectin, 50% human serum-containing DMEM, read-out: αvβ3 expressed cells adhesion inhibiting IC50 value. On the procedure: The experiment was carried out by partially modifying the method of Juliano et al. (Exp. Cell Res., 225(1), 132 (1996)).
Human vitronectin (available from CHEMICON) was adjusted to 10 μg/mL with phosphate buffered physiological saline (hereinafter abbreviated as PBS). This was applied onto the 96-well plate (MS9586F, available from SUMIRON) with 100 μL/well, coating was carried out at room temperature for 1 hour, and the coating solution was removed and the plate was dried. Thereafter, blocking treatment was carried out with 1.0% BSA dissolved in Dulbecco's Modified Eagle Medium (hereinafter abbreviated as DMEM) for 1 hour, washed with PBS, and the resulting material was used for the adhesion test as a coating plate. HUVEC (human umbilical endothelial cells) (available from Clonetics Corp.) cultured in endothelian cell basal medium EBM2 (available from Clonetics Corp.) containing EGM-2 SingleQuot Kit suppi. & growth factors EGM2 (available from Clonetics Corp.) and 10% fetal bovine serum (hereinafter abbreviated as FBS) were detached by using trypsin-ethylenediamine tetraacetic acid, washed by using PBS and recovered, and then, suspended in 50% human serum-containing DMEM to prepare cell suspension of HUVEC. […]
The adhesion test was carried out in a 5% carbonic acid gas incubator (37° C.) for 1 hour. […] Crystal violet staining was carried out, and the number of stained cells was measured. […]

Where a name gives a salt, the structure may show the parent alone.

Turning to `CNc1cccc(CCOc2ccc3c(c2)CN(CC(F)(F)F)C(=O)C(CC(=O)O)C3)n1` (racemic) [Compound A, 8-[2-[6-(methylamino)-pyridin-2-yl]-1-ethoxy]-3-oxo-2-(2,2,2-trifluoroethyl)-2,3,4,5-tetrahydro-1H-2-benz-azepin-4-acetic acid, reference compound], the IC50 in assay [1] is above 100000 nM.
Regarding `O=C(O)CC1Cc2ccc(OCCc3cn4c(n3)NCCC4)cc2CN(CC(F)(F)F)C1=O` (stereo not shown) [Example 2, 3-oxo-8-[2-(5,6,7,8-tetrahydroimidazo[1,2-a]pyrimidin-2-yl)ethoxy]-2-(2,2,2-tri-fluoroethyl)-2,3,4,5-tetrahydro-1H-2-benzazepin-4-acetic acid trifluoroacetate], the IC50 was determined as 61 nM in assay [2] and 441 nM in assay [1].
Consider `O=C(O)C[C@@H]1Cc2ccc(OCCc3cn4c(n3)NCCC4)cc2CN(CC(F)(F)F)C1=O` [Example 4, (4S)-3-oxo-8-[2-(5,6,7,8-tetrahydroimidazo[1,2-a]pyrimidin-2-yl)ethoxy]-2-(2,2,2-trifluoroethyl)-2,3,4,5-tetrahydro-1H-2-benzazepin-4-acetic acid], for which, in assay [1], the IC50 turned out to be 296 nM.
